Data on 30 compounds can be found in US11071731B2, “Allosteric modulators of the mu opioid receptor” (Chiromics, LLC, priority 2017, dated 2021).

Test [1] concerns the target T1, mu opioid receptor (MOR) (Homo sapiens, UniProt P35372). In words: Hit Hunter cAMP signaling assay (adenylyl cyclase inhibition), PAM mode with EC20 endomorphin-1. Particulars: for EC50: cAMP EC50, adenylyl cyclase inhibition; for cAMP Max. Resp.: maximal response for adenylyl cyclase inhibition. The test is classed as cell-based.
In test [2] the target is T1, mu opioid receptor (MOR). Nature of the test: PathHunter β-arrestin recruitment assay, PAM mode with EC20 endomorphin-1. The test is classed as cell-based. Particulars: for β-arr Max. Resp.: maximal response for β-arrestin recruitment; for EC50: β-arrestin recruitment, read-out: β-arr. EC50. An outline of the steps:
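Enzyme fragment complementation read-out: β-gal ED fragment fused to receptor, EA fused to β-arrestin, recruitment restoring β-gal activity detected by chemiluminescence. EC50 and percent maximal response derived for each compound.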

T1 sequence (P35372 whole entry): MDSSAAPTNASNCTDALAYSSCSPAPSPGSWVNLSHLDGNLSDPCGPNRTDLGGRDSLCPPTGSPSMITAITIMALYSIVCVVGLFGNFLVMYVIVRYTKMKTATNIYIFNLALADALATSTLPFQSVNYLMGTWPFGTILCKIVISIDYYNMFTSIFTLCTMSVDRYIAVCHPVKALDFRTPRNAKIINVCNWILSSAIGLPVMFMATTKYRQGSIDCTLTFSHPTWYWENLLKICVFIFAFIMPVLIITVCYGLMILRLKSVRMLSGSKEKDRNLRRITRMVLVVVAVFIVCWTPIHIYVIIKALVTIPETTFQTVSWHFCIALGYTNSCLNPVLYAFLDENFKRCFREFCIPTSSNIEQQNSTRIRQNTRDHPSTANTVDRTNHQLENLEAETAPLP

`Fc1cc(C2CCCCN2Cc2cccc(Cl)c2)cc(C(F)(F)F)c1` (stereo not drawn) [compound 157]: in test [1], the concentration for a half-maximal effect (EC50) was above 2.1 µM and the “cAMP Max. Resp.” value is listed as “E (E represents a maximal response of 40-60%)”. Besides, in test [2], the “β-arr Max. Resp.” value was “F (F represents a maximal response of > 60%)” and the EC50 was above 2.1 µM.

With `Fc1ccc(C2CCCCN2Cc2cc(Cl)ccc2Cl)cc1Cl` (stereo not drawn) [compound 158], in test [1], the EC50 is below 0.7 µM and the “cAMP Max. Resp.” value is given as “D (D represents a maximal response of < 40%)”. In test [2], the “β-arr Max. Resp.” value was “F (F represents a maximal response of > 60%)” and the EC50 was 0.7 to 2.1 µM.

Take `FC(F)(F)c1cccc(C2CCCCN2Cc2cc(Cl)cc(Cl)c2)n1` (stereo not drawn) [compound 159]: in test [1], the half-maximal effective concentration (EC50) is 0.7 to 2.1 µM and the “cAMP Max. Resp.” value is “E (E represents a maximal response of 40-60%)”. In addition, in test [2], the “β-arr Max. Resp.” value is listed as “F (F represents a maximal response of > 60%)” and the EC50 was in the range of 0.7 to 2.1 µM.

With `Fc1ccc(C2CCCCN2Cc2cc(Cl)ccc2F)cc1Cl` (stereo not drawn) [compound 160], in test [1], the EC50 lay in the range of 0.7 to 2.1 µM and the “cAMP Max. Resp.” value was “F (F represents a maximal response of > 60%)”. For the same compound, in test [2], the “β-arr Max. Resp.” value is on record as “F (F represents a maximal response of > 60%)” and the EC50 fell in the range of 0.7 to 2.1 µM.

In the case of `Fc1ccc(CN2CCCCC2c2cccc(C(F)(F)F)n2)cc1Cl` (stereo not drawn) [compound 161], in test [1], the EC50 was 0.7 to 2.1 µM and the “cAMP Max. Resp.” value is given as “E (E represents a maximal response of 40-60%)”. In test [2], the “β-arr Max. Resp.” value was “F (F represents a maximal response of > 60%)” and the EC50 lay in the range of 0.7 to 2.1 µM.

Regarding `FC(F)(F)c1cccc(C2CCCCN2Cc2cc(Cl)ccn2)n1` (stereo not drawn) [compound 162], in test [1], the EC50 is above 2.1 µM and the “cAMP Max. Resp.” value is listed as “E (E represents a maximal response of 40-60%)”. In addition, in test [2], the “β-arr Max. Resp.” value is “F (F represents a maximal response of > 60%)” and the EC50 was above 2.1 µM.

For the compound `Fc1ccc(C2CCCCN2Cc2cc(Cl)ccc2F)cc1` (stereo not drawn) [compound 163], in test [1], the EC50 is below 0.7 µM and the “cAMP Max. Resp.” value is recorded as “E (E represents a maximal response of 40-60%)”. Besides, in test [2], the “β-arr Max. Resp.” value was “F (F represents a maximal response of > 60%)” and the EC50 was in the range of 0.7 to 2.1 µM.

`Fc1cc(Cl)cc(CN2CCCCC2c2cccc(C(F)(F)F)n2)c1` (stereo not drawn) [compound 164]: in test [1], the 50% effective concentration (EC50) was below 0.7 µM and the “cAMP Max. Resp.” value was “E (E represents a maximal response of 40-60%)”. Further, in test [2], the “β-arr Max. Resp.” value was “F (F represents a maximal response of > 60%)” and the concentration for a half-maximal effect (EC50) was in the range of 0.7 to 2.1 µM.

`FC(F)(F)c1cccc(C2CCCCN2Cc2cccc(Cl)n2)n1` (stereo not drawn) [compound 165]: in test [1], the EC50 is 0.7 to 2.1 µM and the “cAMP Max. Resp.” value was “F (F represents a maximal response of > 60%)”. Moreover, in test [2], the “β-arr Max. Resp.” value is on record as “F (F represents a maximal response of > 60%)” and the EC50 is above 2.1 µM.

On to `FC(F)(F)c1cccc(C2CCCCN2Cc2ccnc(Cl)c2)n1` (stereo not drawn) [compound 166], for which, in test [1], the half-maximal effective concentration (EC50) was above 2.1 µM and the “cAMP Max. Resp.” value is recorded as “E (E represents a maximal response of 40-60%)”. Also, in test [2], the “β-arr Max. Resp.” value is “F (F represents a maximal response of > 60%)” and the EC50 is above 2.1 µM.

With `Fc1cc(C2CCCCN2Cc2cc(Cl)ccc2F)cc(C(F)(F)F)c1` (stereo not drawn) [compound 167], in test [1], the EC50 was in the range of 0.7 to 2.1 µM and the “cAMP Max. Resp.” value was “F (F represents a maximal response of > 60%)”. In test [2], the “β-arr Max. Resp.” value is on record as “F (F represents a maximal response of > 60%)” and the EC50 is below 0.7 µM.

`CNc1cccc(C2CCCCN2Cc2cc(Cl)ccc2F)n1` (stereo not drawn) [compound 168]: in test [1], the EC50 was above 2.1 µM and the “cAMP Max. Resp.” value was “F (F represents a maximal response of > 60%)”. Also, in test [2], the “β-arr Max. Resp.” value is on record as “F (F represents a maximal response of > 60%)” and the EC50 was above 2.1 µM.

Regarding `Fc1ccc(Cl)cc1CN1CCCCC1c1cccc(OC(F)(F)F)n1` (stereo not drawn) [compound 169], in test [1], the EC50 was below 0.7 µM and the “cAMP Max. Resp.” value is reported as “F (F represents a maximal response of > 60%)”. Besides, in test [2], the “β-arr Max. Resp.” value is “F (F represents a maximal response of > 60%)” and the EC50 is below 0.7 µM.

Take `FC(F)(F)c1cccc(C2CCCCN2Cc2cccc(Cl)c2)n1` (stereo not drawn) [compound 170]: in test [1], the EC50 was below 0.7 µM and the “cAMP Max. Resp.” value is given as “E (E represents a maximal response of 40-60%)”. In addition, in test [2], the “β-arr Max. Resp.” value was “F (F represents a maximal response of > 60%)” and the EC50 lay in the range of 0.7 to 2.1 µM.

In the case of `Fc1cccc(C2CCCCN2Cc2cc(Cl)ccc2F)n1` (stereo not drawn) [compound 171], in test [1], the EC50 lay in the range of 0.7 to 2.1 µM and the “cAMP Max. Resp.” value was “E (E represents a maximal response of 40-60%)”. Also, in test [2], the “β-arr Max. Resp.” value is recorded as “F (F represents a maximal response of > 60%)” and the EC50 lay within 0.7 to 2.1 µM.

In the case of `Fc1c(Cl)cccc1CN1CCCCC1c1cccc(C(F)(F)F)n1` (stereo not drawn) [compound 172], in test [1], the EC50 was below 0.7 µM and the “cAMP Max. Resp.” value was “E (E represents a maximal response of 40-60%)”. Also, in test [2], the “β-arr Max. Resp.” value is recorded as “F (F represents a maximal response of > 60%)” and the half-maximal effective concentration (EC50) lay in the range of 0.7 to 2.1 µM.

With `FC(F)(F)c1cccc(C2CCCCN2Cc2cccc(Br)c2)n1` (stereo not drawn) [compound 173], in test [1], the EC50 is below 0.7 µM and the “cAMP Max. Resp.” value is recorded as “F (F represents a maximal response of > 60%)”. Further, in test [2], the “β-arr Max. Resp.” value was “F (F represents a maximal response of > 60%)” and the EC50 was below 0.7 µM.

In the case of `Fc1ccc(C2CCCCN2Cc2ccnc(Cl)c2)cc1Cl` (stereo not drawn) [compound 174], in test [1], the concentration for a half-maximal effect (EC50) is 0.7 to 2.1 µM and the “cAMP Max. Resp.” value is given as “E (E represents a maximal response of 40-60%)”. In test [2], the “β-arr Max. Resp.” value is listed as “F (F represents a maximal response of > 60%)” and the EC50 was 0.7 to 2.1 µM.

Take `FC(F)(F)c1cccc(CN2CCCCC2c2cccc(C(F)(F)F)n2)c1` (stereo not drawn) [compound 175]: in test [1], the EC50 is above 2.1 µM and the “cAMP Max. Resp.” value is “E (E represents a maximal response of 40-60%)”. Besides, in test [2], the “β-arr Max. Resp.” value is “F (F represents a maximal response of > 60%)” and the EC50 was above 2.1 µM.

As for `FC(F)(F)c1cccc(C2CCCCN2Cc2cc(Cl)ccc2Cl)n1` (stereo not drawn) [compound 176], in test [1], the concentration for a half-maximal effect (EC50) lay within 0.7 to 2.1 µM and the “cAMP Max. Resp.” value is reported as “F (F represents a maximal response of > 60%)”. Also, in test [2], the “β-arr Max. Resp.” value was “F (F represents a maximal response of > 60%)” and the EC50 lay within 0.7 to 2.1 µM.

Turning to `Fc1cc(C2CC(F)CCN2c2nc(Cl)ncc2F)cc(C(F)(F)F)c1` (stereo not drawn) [compound 196], in test [1], the EC50 was below 0.7 µM and the “cAMP Max. Resp.” value is “F (F represents a maximal response of > 60%)”. Further, in test [2], the “β-arr Max. Resp.” value was “F (F represents a maximal response of > 60%)” and the EC50 was below 0.7 µM.

For the compound `Fc1cnc(Cl)nc1N1CCC(F)CC1c1cccc(C(F)(F)F)c1` (stereo not drawn) [compound 197], in test [1], the EC50 was 0.7 to 2.1 µM and the “cAMP Max. Resp.” value is given as “F (F represents a maximal response of > 60%)”. Also, in test [2], the “β-arr Max. Resp.” value is recorded as “F (F represents a maximal response of > 60%)” and the EC50 lay in the range of 0.7 to 2.1 µM.

For the compound `Fc1cc(C2CC(F)(F)CCN2c2nc(Cl)ncc2F)cc(C(F)(F)F)c1` (stereo not drawn) [compound 198], in test [1], the EC50 fell in the range of 0.7 to 2.1 µM and the “cAMP Max. Resp.” value was “F (F represents a maximal response of > 60%)”. In addition, in test [2], the “β-arr Max. Resp.” value is “F (F represents a maximal response of > 60%)” and the EC50 lay in the range of 0.7 to 2.1 µM.

As to `Fc1cnc(Cl)nc1N1CCC(F)(F)CC1c1cccc(C(F)(F)F)c1` (stereo not drawn) [compound 199], in test [1], the 50% effective concentration (EC50) fell in the range of 0.7 to 2.1 µM and the “cAMP Max. Resp.” value is “E (E represents a maximal response of 40-60%)”. Moreover, in test [2], the “β-arr Max. Resp.” value was “F (F represents a maximal response of > 60%)” and the EC50 is below 0.7 µM.

On to `C=C1CCN(c2nc(Cl)ncc2F)C(c2cc(F)cc(C(F)(F)F)c2)C1` (stereo not drawn) [compound 200], for which, in test [1], the EC50 was below 0.7 µM and the “cAMP Max. Resp.” value is “E (E represents a maximal response of 40-60%)”. Further, in test [2], the “β-arr Max. Resp.” value is recorded as “F (F represents a maximal response of > 60%)” and the EC50 is below 0.7 µM.

Take `OC1CCN(c2nc(Cl)ncc2F)C(c2cc(F)cc(C(F)(F)F)c2)C1` (stereo not drawn) [compound 201]: in test [1], the EC50 was above 2.1 µM and the “cAMP Max. Resp.” value is given as “F (F represents a maximal response of > 60%)”. For the same compound, in test [2], the “β-arr Max. Resp.” value was “F (F represents a maximal response of > 60%)” and the EC50 is above 2.1 µM.

For `OC1CCN(c2nc(Cl)ncc2F)C(c2cccc(C(F)(F)F)c2)C1` (stereo not drawn) [compound 202], in test [1], the EC50 was above 2.1 µM and the “cAMP Max. Resp.” value is reported as “E (E represents a maximal response of 40-60%)”. In test [2], the “β-arr Max. Resp.” value is “F (F represents a maximal response of > 60%)” and the EC50 was above 2.1 µM.

As for `[2H]C1(c2ccc(F)c(Br)c2)C(F)CCCN1Cc1cccc(Cl)c1` (stereo not drawn) [compound 203], in test [1], the EC50 was below 0.7 µM and the “cAMP Max. Resp.” value is on record as “D (D represents a maximal response of < 40%)”. In addition, in test [2], the “β-arr Max. Resp.” value was “F (F represents a maximal response of > 60%)” and the EC50 is above 2.1 µM.

Take `[2H]C1(c2cccc(C(F)(F)F)c2)C(F)CCCN1Cc1cccc(Cl)c1` (stereo not drawn) [compound 204]: in test [1], the EC50 lay in the range of 0.7 to 2.1 µM and the “cAMP Max. Resp.” value is “F (F represents a maximal response of > 60%)”. For the same compound, in test [2], the “β-arr Max. Resp.” value is on record as “F (F represents a maximal response of > 60%)” and the concentration for a half-maximal effect (EC50) was 0.7 to 2.1 µM.

As to `[2H]C1(c2cccc(C(F)(F)F)c2)C(F)CCCN1Cc1cccc(Br)c1` (stereo not drawn) [compound 206], in test [1], the EC50 is 0.7 to 2.1 µM and the “cAMP Max. Resp.” value is recorded as “E (E represents a maximal response of 40-60%)”. Besides, in test [2], the “β-arr Max. Resp.” value is “F (F represents a maximal response of > 60%)” and the EC50 is 0.7 to 2.1 µM.

A word on the EC50: it is the concentration at which the effect is half-maximal.
